# Key:
# Test in all cases: Bliss interaction score (quartile over a dose matrix) (fitness difference); higher = more antagonism (negative = synergy)
# B. subtilis 168 = tested on: B. subtilis 168
# In short: (§1)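 Fitness was derived from optical density at entry into stationary phase, divided by the robust mean of the no-drug wells on the same plate. That reading was taken as OD595, and the ratio was capped at 1. Single-drug fitness was inferred from the combination data. The Bliss score, observed fitness minus the expected product of single-drug fitness, was summarised as quartiles over technical, biological and donor/recipient replicates.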
# S. aureus DSM 20231 = tested on: S. aureus DSM 20231
# In short: as §1
# S. aureus Newman = tested on: S. aureus Newman
# In short: as §1
# S. pneumoniae D39V = tested on: S. pneumoniae D39V
# In short: as §1
# 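Note: first quartile when negative (synergy) and third quartile when positive (antagonism).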
Compound,Bliss interaction score (B. subtilis 168),Bliss interaction score (S. aureus DSM 20231),Bliss interaction score (S. aureus Newman),Bliss interaction score (S. pneumoniae D39V),Bliss interaction score (B. subtilis 168; main component drawn),Bliss interaction score (S. aureus DSM 20231; main component drawn),Bliss interaction score (S. aureus Newman; main component drawn),Bliss interaction score (S. pneumoniae D39V; main component drawn)
CC1=C(C(=O)O)N2C(=O)[C@@H](NC(=O)[C@H](N)c3ccccc3)[C@H]2SC1 [Cephalexin] + CC(=O)O[C@H]1C[C@@]2(C)[C@@H](C[C@@H](O)[C@H]3[C@@]4(C)CC[C@@H](O)[C@@H](C)[C@@H]4CC[C@@]32C)/C1=C(\CCC=C(C)C)C(=O)O [Fusidic acid],0.0683,0.0436,0.0547,0.143,,,,
CC1=C(C(=O)O)N2C(=O)[C@@H](NC(=O)[C@H](N)c3ccccc3)[C@H]2SC1 [Cephalexin] + CC(C1CCC(C(O1)OC2C(CC(C(C2O)OC3C(C(C(CO3)(C)O)NC)O)N)N)N)NC [Gentamicin],,,,,-0.0985,-0.0632,-0.018,-0.132
CC1=C(C(=O)O)N2C(=O)[C@@H](NC(=O)[C@H](N)c3ccccc3)[C@H]2SC1 [Cephalexin] + CCC[C@@H]1C[C@@H](C(=O)N[C@@H]([C@H]2O[C@H](SC)[C@H](O)[C@@H](O)[C@H]2O)[C@H](C)Cl)N(C)C1 [Clindamycin],-0.0509,-0.0563,0.138,0.14,,,,
CC1=C(C(=O)O)N2C(=O)[C@@H](NC(=O)[C@H](N)c3ccccc3)[C@H]2SC1 [Cephalexin] + CC[C@H]1OC(=O)[C@H](C)C(=O)[C@H](C)[C@@H](O[C@@H]2O[C@H](C)C[C@H](N(C)C)[C@H]2O)[C@](C)(OC)C[C@@H](C)C(=O)[C@H](C)[C@H]2N(CCCCn3cnc(-c4cccnc4)c3)C(=O)O[C@]12C [Telithromycin],0.0293,0.0639,0.0476,0.0359,,,,
CC1=C(C(=O)O)N2C(=O)[C@@H](NC(=O)[C@H](N)c3ccccc3)[C@H]2SC1 [Cephalexin] + CC[C@H]1OC(=O)[C@H](C)[C@@H](O[C@H]2C[C@@](C)(OC)[C@@H](O)[C@H](C)O2)[C@H](C)[C@@H](O[C@@H]2O[C@H](C)C[C@H](N(C)C)[C@H]2O)[C@](C)(O)C[C@@H](C)C(=O)[C@H](C)[C@@H](O)[C@]1(C)O [Erythromycin],-0.0405,-0.0356,0.0826,0.0656,,,,
CC1=C(C(=O)O)N2C(=O)[C@@H](NC(=O)[C@H](N)c3ccccc3)[C@H]2SC1 [Cephalexin] + CC[C@H]1OC(=O)[C@H](C)[C@@H](O[C@H]2C[C@@](C)(OC)[C@@H](O)[C@H](C)O2)[C@H](C)[C@@H](O[C@@H]2O[C@H](C)C[C@H](N(C)C)[C@H]2O)[C@](C)(OC)C[C@@H](C)C(=O)[C@H](C)[C@@H](O)[C@]1(C)O [Clarithromycin],0.0576,0.0663,0.0874,0.0361,,,,
CC1=C(C(=O)O)N2C(=O)[C@@H](NC(=O)[C@H](N)c3ccccc3)[C@H]2SC1 [Cephalexin] + CN(C)[C@@H]1C(O)=C(C(N)=O)C(=O)[C@@]2(O)C(O)=C3C(=O)c4c(O)ccc(Cl)c4[C@@](C)(O)[C@H]3C[C@@H]12 [Clortetracycline],0.0862,0.0869,0.104,0.0348,,,,
CC1=C(C(=O)O)N2C(=O)[C@@H](NC(=O)[C@H](N)c3ccccc3)[C@H]2SC1 [Cephalexin] + CN[C@H](CC(C)C)C(=O)N[C@H]1C(=O)N[C@@H](CC(N)=O)C(=O)N[C@H]2C(=O)N[C@H]3C(=O)N[C@H](C(=O)N[C@H](C(=O)O)c4cc(O)cc(O)c4-c4cc3ccc4O)[C@H](O[C@H]3C[C@](C)(N)[C@@H](O)[C@H](C)O3)c3ccc(c(Cl)c3)Oc3cc2cc(c3O[C@@H]2O[C@H](CO)[C@@H](O)[C@H](O)[C@H]2O[C@H]2C[C@](C)(NCc3ccc(-c4ccc(Cl)cc4)cc3)[C@@H](O)[C@H](C)O2)Oc2ccc(cc2Cl)[C@H]1O [Oritavancin],0.0217,0.0767,0.104,0.069,,,,
CC1=C(C(=O)O)N2C(=O)[C@@H](NC(=O)[C@H](N)c3ccccc3)[C@H]2SC1 [Cephalexin] + CO[C@@]12[C@H](COC(N)=O)C3=C(C(=O)C(C)=C(N)C3=O)N1C[C@@H]1N[C@@H]12 [MitomycinC],-0.0415,0.0608,0.0613,-0.0789,,,,
CC1=C(C(=O)O)N2C(=O)[C@@H](NC(=O)[C@H](N)c3ccccc3)[C@H]2SC1 [Cephalexin] + COc1cccc2c1C(=O)c1c(O)c3c(c(O)c1C2=O)C[C@@](O)(C(=O)CO)C[C@@H]3O[C@H]1C[C@H](N)[C@H](O)[C@H](C)O1 [Doxorubicin],0.084,0.0343,-0.0552,-0.111,,,,
CC1=C(C(=O)O)N2C(=O)[C@@H](NC(=O)[C@H](N)c3ccccc3)[C@H]2SC1 [Cephalexin] + C[C@@H]1O[C@@H]1P(=O)(O)O [Fosfomycin],-0.0491,0.038,0.134,-0.111,,,,
CC1=C(C(=O)O)N2C(=O)[C@@H](NC(=O)[C@H](N)c3ccccc3)[C@H]2SC1 [Cephalexin] + C[C@@H](O)[C@H]1C(=O)N2C(C(=O)O)=C(SCCNC=N)C[C@H]12 [Imipenem],-0.104,0.0677,-0.0579,-0.237,,,,
